Structures can show the parent of a compound that is named as a salt.
What was measured:
[1] = biological target: T1, human recombinant dopamine D3 receptor (Homo sapiens, UniProt P35462); experiment: Inhibition of [3H]spiperone binding, human recombinant dopamine D3 receptor; conditions: cells expressing human recombinant D3 receptor, read-out: inhibition constant (Ki), dopamine D3 receptor
T1 construct: expressed in transfected cells
Description: (§1) The N-(3-{4-[4-(8-oxo-8H-[1,3]dioxolo[4,5-g]chromen-7-yl)-butyl]-piperazin-1-yl}-phenyl)-methanesulfonamide hydrochloride was evaluated in vitro as a dopamine D3 receptor ligand and modulator of the activity of that receptor in accordance with the invention in cells expressing human recombinant dopamine D3 receptor or human recombinant dopamine D2 receptor. The inhibition constant (Ki) was measured by inhibition of the binding of [^3H] spiperone as described by Cussac et al., in Naunyn-Schmiedeberg's Arch. Pharmacol. 2000, vol 361, p 569-572.

[2] = biological target: T2, human recombinant dopamine D2 receptor (Homo sapiens, UniProt P14416); experiment: Inhibition of [3H]spiperone binding, human recombinant dopamine D2 receptor; conditions: human recombinant D2 vs D3 receptor
T2 construct: expressed in transfected cells
T2 sequence (P14416 whole entry): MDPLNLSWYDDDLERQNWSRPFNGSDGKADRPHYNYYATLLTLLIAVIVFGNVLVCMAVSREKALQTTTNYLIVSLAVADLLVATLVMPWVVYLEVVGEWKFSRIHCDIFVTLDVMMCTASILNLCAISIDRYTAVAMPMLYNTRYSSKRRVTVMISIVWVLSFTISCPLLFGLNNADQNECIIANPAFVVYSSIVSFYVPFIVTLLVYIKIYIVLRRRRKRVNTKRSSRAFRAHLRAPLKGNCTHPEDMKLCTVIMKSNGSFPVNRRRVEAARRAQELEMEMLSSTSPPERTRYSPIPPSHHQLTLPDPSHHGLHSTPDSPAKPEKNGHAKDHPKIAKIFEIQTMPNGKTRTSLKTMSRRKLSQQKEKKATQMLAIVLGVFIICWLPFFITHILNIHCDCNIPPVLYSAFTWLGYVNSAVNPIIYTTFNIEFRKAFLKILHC
Description: as §1

[3] = tested on: social interaction behavior of offspring of sodium valproate- or saline-treated female rats; experiment: Social interaction in the valproic acid rat model of autism; type: in vivo, Sprague-Dawley rats; conditions: acute administration, scored 10 min, n=10
Description: The N-(3-{4-[4-(8-oxo-8H-[1,3]dioxolo[4,5-g]chromen-7-yl)-butyl]-piperazin-1-yl}-phenyl)-methanesulfonamide hydrochloride was tested on social interaction of offspring of female rats which had been administered valproic acid as a sodium salt. The experimental settings of the valproic acid rat model of autism were adapted from published data (Dendrinos et al., Front. Integr. Neurosci. 2011, vol 5, art 68; Markram et al., Neuropsychopharm. 2007, vol 33, p 901-912; Schneider et al., Neuropsychopharm. 2005, vol 30, p 80-89).
Pregnant (embryonic day 8 max) female Sprague-Dawley rats [OFA (SD) Charles River Lyon, France] were quarantined for 4 days. Animals were group housed (2 per cage) in a full bottom cage (ML-H Cage, 370×235×180 mm, L×W×H; floor surface 870 cm^2) in an environmentally controlled room (temperature 21±1° C.; relative humidity 55±5%) under a 12-h light/dark cycle (lights on at 07:00 AM) with food (A04, Safe, Augy, France) and filtered water (0.2 μm pore diameter) freely available. Until weaning of offspring, animals were changed only once per week in order to disturb them as little as possible. Environmental enrichment (nesting material) was provided.
On embryonic days 12 and 13 (E12-E13), females were weighed and received three intraperitoneal injections of 2.4 ml/kg of sodium valproate (NaVPA, 200 mg/kg). Sodium valproate was dissolved in 0.9% saline for a concentration of 83.3 mg/ml, pH 7.3. Control dams received three intraperitoneal injections of saline (2.4 ml/kg). After the third injection, females were individually housed in ML-H type cages and allowed to raise their litters. Offspring were weaned between 21 to 23 days postnatally.
One sodium valproate- or saline-exposed rat and an unfamiliar naïve rat were placed in opposite corners of an arena (black arena 70 cm×70 cm×30 cm, L×I×H). Individual behavior related to social interaction such as following grooming, sniffing or biting the other rat as well as climbing over the other rat, initiated by the tested rat toward the unfamiliar rat were scored for a period of 10 min. […]

T1 sequence (P35462 whole entry): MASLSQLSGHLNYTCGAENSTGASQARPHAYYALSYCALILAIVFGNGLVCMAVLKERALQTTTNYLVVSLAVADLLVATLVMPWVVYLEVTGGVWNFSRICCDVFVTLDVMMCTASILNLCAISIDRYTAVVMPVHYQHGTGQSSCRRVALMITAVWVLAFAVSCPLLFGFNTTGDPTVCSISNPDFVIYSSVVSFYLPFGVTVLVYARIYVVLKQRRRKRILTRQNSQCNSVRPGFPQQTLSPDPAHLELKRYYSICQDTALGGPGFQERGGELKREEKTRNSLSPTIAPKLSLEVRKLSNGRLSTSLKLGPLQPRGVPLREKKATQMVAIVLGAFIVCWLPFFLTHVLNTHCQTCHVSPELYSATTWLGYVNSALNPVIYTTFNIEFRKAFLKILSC

## CS(=O)(=O)Nc1cccc(N2CCN(CCCCc3coc4cc5c(cc4c3=O)OCO5)CC2)c1 [compound according to the invention, N-(3-{4-[4-(8-oxo-8H-[1,3]dioxolo[4,5-g]chromen-7-yl)-butyl]-piperazin-1-yl}-phenyl)-methanesulfonamide hydrochloride]
[1]
  Ki: 0.17 nM
[2]
  affinity for dopamine D2 receptor relative to D3 (times weaker): 71 times
[3]; 0.63 mg/kg
  effect on social interaction deficits induced by prenatal exposure to sodium valproate: significantly reduced
[3]; 2.5 mg/kg
  effect on social interaction deficits induced by prenatal exposure to sodium valproate: completely reversed
[3]; offspring of saline-treated mothers
  effect on social interaction behavior: no significant effects

— patent US10028948B2, “Chromone derivative as a dopamine D3 receptor antagonist for its use for the treatment of autism spectrum disorder” (PIERRE FABRE MEDICAMENT, priority 2013, dated 2018)
